According to patent EP1619246A1, “RNA dependent RNA polymerases from coronavirus and their use in molecular biology and drug screening” (Université de la Méditerranée, Aix-Marseille II, priority 2004, dated 2006):

Target: SARS CoV nsp8 RNA dependent RNA polymerase, N-terminally His-tagged (SARS-CoV replicase residues 3920-4117), SEQ ID NO. 1 (Severe acute respiratory syndrome coronavirus, UniProt P0C6X7)
Assay: biochemical
Format: biochemical

SMILES	IC50 [nM]	Nsp8 activity inhibition in presence of 50 µM 3'-deoxy GTP	nsp8 polymerase activity in presence of Rifampicine (inhibitor of the bacterial polymerase)
Nc1nc2c(ncn2[C@@H]2O[C@H](COP(=O)(O)OP(=O)(O)OP(=O)(O)O)C[C@H]2O)c(=O)[nH]1 [3'-deoxy GTP, 3'-deoxy-GTP]	~80	can be inhibited	
CO[C@H]1/C=C/O[C@@]2(C)Oc3c(C)c(O)c4c(O)c(c(/C=N/N5CCN(C)CC5)c(O)c4c3C2=O)NC(=O)/C(C)=C\C=C\[C@H](C)[C@H](O)[C@@H](C)[C@@H](O)[C@@H](C)[C@H](OC(C)=O)[C@@H]1C [Rifampicine]			activity detected
